In patent US20150272992A1, “Treatment of Tumors with Activated Mesenchymal Stem Cells” (THE TEXAS A&M UNIVERSITY SYSTEM, priority 2012, published 2015):

Legend:
Type in all cases: cell-based, human
[1] = test system: TRAIL; experiment: TRAIL expression in hMSCs (real-time RT-PCR, Western, ELISA, IF)
Method: (§1) Approximately 200 ng of total RNA extracted from cultured cells was used to synthesize double-stranded complementary DNA (cDNA) by reverse transcription (SuperScript III; Invitrogen). cDNA was analyzed by real-time PCR using TaqMan Universal PCR Master Mix (Applied Biosystems). For the assays, reactions were incubated at 50° C. for 2 minutes and at 95° C. for 10 minutes followed by 40 cycles at 95° C. for 15 seconds and 60° C. for 1 minute. For relative quantitation of gene expression, human-specific GAPDH primers and probe (Taq-Man Gene Expression Assays ID, Hs00266705_g1) were used. The other PCR primers and probes were human DKK3 (Hs00247426_m1), human TRAIL (TNFSF10: Hs00921974_m1) and human TLR3 (Hs01551078_m1) all purchased from the same source (Applied Biosystems).
(§2) Cultured cells were sorted using FACS after CD90-PE staining. Sorted samples were lysed (Cell Extraction Buffer; Invitrogen) and sonicated for 15-20 seconds (Ultrasonic Processor, 130W; Cole-Parmer; Vernon Hills, Ill.). […] The samples were heated at 97° C. for 5 minutes. Denatured protein samples were separated by electrophoresis on polyacrylamide gels (NuPAGE® Bis-Tris Gels; Invitrogen) and proteins transferred to Invitrolon™ PVDF membrane (Pore size—0.45 μm; Invitrogen) using Novex® NuPAGE® SDS-PAGE Gel System (Invitrogen). Membranes were then blocked for 1 hour at room temperature (RT) using blocking buffer that contained 5% non-fat dry milk (Cell Signaling Technologies, Inc.) in Tris-buffered saline with 0.1% Tween-20 (TBST). After blocking, membranes were incubated overnight at 4° C. with primary antibodies that were diluted in 5% BSA in TBST. The membranes were washed with TBST three times for 5 minutes each, and incubated with secondary antibodies, which were diluted in blocking buffer, for 1 hour at RT. After secondary antibody incubation, the membranes were washed with TBST three times and developed using West-Q Chemiluminescent Substrate Kit (Gendepot, Inc.; Barker, Tex.) for 1 minute. Images were taken using Molecular Imager VersaDoc™ MP 4000 (Bio-rad Laboratories). The membranes were washed with TBST three times and stripped using Restore™ Western Blot Stripping buffer (Thermo Fisher Scientific, Inc.) for 15 minutes at 37° C., followed by three more washes with TBST. The membranes were blocked for 1 hour using blocking buffer and incubated with β-actin primary antibody conjugated with HRP (1:10,000) diluted in blocking buffer followed by imaging as described above. […]
Conditioned media from cultured MDA and hMSCs were collected after 24 hour incubation. For the DKK-3 assay, culture media were filtered (Spin-X® Centrifuge Tube Filter, 0.22 μm; Corning, Inc) and the protein level was detected by ELISA (Human Dkk-3 DuoSet; R&D Systems). […]

[2] = test system: MDA cells; experiment: Co-culture of hMSCs and MDA cells (Annexin V/7AAD apoptosis, live cell counting)
Method: (§3) hMSCs were plated at 10^5 cells in CCM in 6-well plates and incubated for 4 hrs. For pre-activation, hMSCs were incubated at 37° C. for 24 hrs in 2% CM containing 10 ng/mL TNF-α. For co-culture, an equal number of MDA cells in 2% CM with or without TNF-α (10 ng/mL) were added to hMSC containing wells. For transwell cultures, hMSCs were plated at 10^5 cells in the upper compartment (Transwell, 0.4 μm pore size; Corning; Corning, N.Y.), while an equal number of MDA cells was plated in the lower compartment in 2% CM with or without TNF-α (10 ng/mL). After 24 hrs, supernatants and cells were collected. For some experiments, MDA cells were treated with 1 to 100 ng/mL doxorubicin (Sigma-Aldrich) in 2% CM for 24 his at 37° C., prior to co-culture with hMSCs. In other experiments, hMSCs were treated with either apoptotic MDA cells or 1 μg/mL Polyinosinic-Polycytidylic acid [Poly(I:C); Sigma-Aldrich; St. Louis, Mo.] with or without TNF-α (10 ng/ml) for 24 hrs in 2% CM.
(§4) hMSCs and MDA cells from co-culture experiments were suspended in PBS and incubated with CD90-PE (Clone Thy1/310; Beckman Coulter) for 45 minutes on ice, washed with PBS by centrifugation, incubated at RT for 20 minutes with 300 ng/mL annexin V (AnnexinV-FITC Apoptosis Detection Kit; Sigma-Aldrich) and 4 μg/mL 7-aminoactinomycin D (7AAD; Sigma-Aldrich.), and analyzed by flow cytometry (Cytomics FC500; Beckman Coulter).
hMSCs (5×10^4 cells/well in 6 well plate) were treated with either TLR3 antibody (5 μg/mL; eBioscience, Inc; San Diego, Calif.), TRAIL antibody (25 μg/mL; BD Biosciences, Inc; San Jose, Calif.), or normal mouse IgG (5 or 25 μg/mL; PeproTech, Inc; Rocky Hill, N.J.) for 30 minutes at 37° C. in 2% CM with or without TNF-α (10 ng/mL) prior to co-culture with an equal number of MDA cells for 24 hrs.

[3] = test system: cyclin D1, cyclin D3 and p21; experiment: Cyclin D1, cyclin D3 and p21 in MDA cells (Western blot, IF staining); settings: TNF-α alone
Method: as §2, with “Laboratories).” for “Laboratories). The membranes were washed with TBST three times and stripped using Restore™ Western Blot Stripping buffer (Thermo Fisher Scientific, Inc.) for 15 minutes at 37° C., followed by three more washes with TBST. The membranes were blocked for 1 hour using blocking buffer and incubated with β-actin primary antibody conjugated with HRP (1:10,000) diluted in blocking buffer followed by imaging as described above.”

[4] = test system: TLR3; experiment: TLR3 expression in hMSCs (real-time RT-PCR); settings: incubation with TNF-α
Method: as §1
hMSCs and MDA cell were separated by cell sorting (FACS, MoFlo™ XDP; Beckman Coulter; Brea, Calif.) after labeling with CD90-PE for 45 minutes on ice. RNA was extracted using RNeasy Mini Kit (QIAGEN). See Supplemental Information for real time RT-PCR analysis.

[5] = test system: DKK3; experiment: DKK3 expression in hMSCs (ELISA); settings: 10 ng/mL TNF-α
Method: Conditioned media from cultured MDA and hMSCs were collected after 24 hour incubation. For the DKK-3 assay, culture media were filtered (Spin-X® Centrifuge Tube Filter, 0.22 μm; Corning, Inc) and the protein level was detected by ELISA (Human Dkk-3 DuoSet; R&D Systems). For detection of TRAIL, the filtered medium was concentrated to 4 times (Vivaspin 6 (5 kDa MWCO; GE Healthcare; UK) and assayed by ELISA (Human TRAIL Quantikine ELISA kit; R&D Systems).

[6] = test system: MDA cells; experiment: MDA cells incubated with agent alone (live cell counting, MTT, Annexin V/7AAD)
Method: as §3, §4

[7] = test system: β-catenin; experiment: β-catenin in MDA cells (IF staining); settings: 24 hr incubation with rhDKK3
Method: For immunofluorescence staining, hMSCs were cultured in CCM overnight in 150 mm diameter plates and replated at 10,000 cells/cm^2 in chambered slides (Lab Tek II Chamber Slide™ System; Nunc Thermo Scientific, Rochester, N.Y.). […] After co-culture, the cells were washed with PBS twice and fixed with either methanol for anti-TRAIL antibody or 4% PFA for all other antibodies. The slides were further processed for immuno-staining as described above. The antibodies used for immunochemistry were anti-human nuclei mouse monoclonal antibody (Millipore, Billerica, Mass.) anti-GFP-Alexa Fluor® rat monoclonal antibody (RQ2; MBL Co. Ltd, Woburn, Mass.), anti-human TRAIL rabbit polyclonal antibodies (C92B9; Cell Signaling) anti-human cyclin D1 mouse monoclonal antibody (DCS6; Cell Signaling), anti-human p21 mouse monoclonal antibody (DCS60; Cell Signaling) and anti-human β-catenin mouse monoclonal antibodies (BD Bioscience, Sparks, Md.). Alexa Fluor® antibodies (Invitrogen) were used for secondary antibodies.

[8] = test system: U87; experiment: Live cell number / cell death of U87 cells; settings: 100 ng/ml rhTRAIL, 24 hour; compared with MDA cells

Question: DNase was tested. Which “increase of TRAIL in hMSCs by apoptotic MDA cells pre-treated with enzyme” value ([1]; 24 hr incubation) did it give?
Answer: The value was “inhibited the increase of TRAIL in hMSCs”.

Question: With IFN-γ: pro-inflammatory agent as the molecule, how does the “up-regulation of TRAIL in hMSCs” value ([1]; 24 hour incubation of hMSCs with the agent, real time RT-PCR) read?
Answer: Its value is 30 fold.

Question: What does the source list for TNF-α?
Answer: expression of TRAIL protein in hMSCs ([1]; 10 ng/mL TNF-α): up-regulated; concentration adequate to activate hMSCs to induce MDA apoptosis ([2]; co-culture): 0.1 ng/mL; activation of hMSCs to induce apoptosis of MDA cells in co-culture ([2]; over the range of 0.1 to 10 ng/mL): concentration dependent; expression of cyclin D1, D3 and p21 in MDA cells [3]: had no significant effect; expression of TLR3 in hMSCs [4]: increased by incubation with TNF-α; expression of DKK3 protein in hMSCs [5]: up-regulated

Question: “Polyinosinic-Polycytidylic acid [poly(I:C)]” was tested. Which “expression of TRAIL in hMSCs” value ([1]; 1 μg/mL Poly(I:C), 24 hrs) did it give?
Answer: Its value is “increased expression of TRAIL in hMSCs”.

Question: And the “MDA apoptosis when agent added to co-cultures” value ([2]; poly(I:C)/TNF-α pre-activated hMSCs, 24 hr)?
Answer: Its value is “small but statistically significant increase in MDA apoptosis”.

Question: What does the source list for “rhDKK-3: recombinant human DKK3 (R&D Systems)”?
Answer: proliferation of MDA cells (MTT, live cell number) ([6]; 24 hr incubation with rhDKK3): decreased; viability of MDA cells (Annexin V & 7AAD) ([6]; rhDKK3 5 ng/mL, 24 hr): without affecting the viability of MDA cells; number of β-catenin expressing MDA [7]: decreased the number of β-catenin expressing MDA

Question: Which results are given for `COc1cccc2c1C(=O)c1c(O)c3c(c(O)c1C2=O)C[C@@](O)(C(=O)CO)C[C@@H]3O[C@H]1C[C@H](N)[C@H](O)[C@H](C)O1` [doxorubicin]?
Answer: apoptosis of MDA cells ([6]; 100 ng/mL (0.2 μM)): did not induce apoptosis; proliferation of MDA (recovery of live cells) ([6]; 100 ng/mL (0.2 μM), 24 hrs): suppressed proliferation of MDA; number of live MDA cells recovered from cultures ([6]; after 24 hrs, 1 to 100 ng/mL, dose dependent): decreased the number of live MDA cells

B1: rhTRAIL: recombinant human TRAIL (R&D Systems) (protein, UniProt P50591 39-281, looked up)
extracellular domain: TNELKQMQDKYSKSGIACFLKEDDSYWDPNDEESMNSPCWQVKWQLRQLVRKMILRTSEETISTVQEKQQNISPLVRERGPQRVAAHITGTRGRSNTLSSPNSKNEKALGRKINSWESSRSGHSFLSNLHLRNGELVIHEKGFYYIYSQTYFRFQEEIKENTKNDKQMVQYIYKYTSYPDPILLMKSARNSCWSKDAEYGLYSIYQGGIFELKENDRIFVSVTNEHLIDMDHEASFFGAFLVG
modifications: extracellular domain
Question: Which “sensitivity of U87 cells (cell death)” value [8] does the source give for B1 here?
Answer: Its value is “less sensitive to rhTRAIL than MDA cells”.
